We go through six compounds from patent US20240261417A1, “SOS1 DEGRADING AGENT AND PREPARATION METHOD THEREFOR AND APPLICATION THEREOF” (SHANGHAI LEADINGTAC PHARMACEUTICAL CO. LTD., priority 2021, published 2024).

In assay [1] the test system is KRAS G12V mutant human lung adenocarcinoma cells NCI-H441. Put plainly: 3D cell proliferation inhibition assay, NCI-H441. In kind it is cell-based. The following applies: Homo sapiens, NCI-H441, 168 h, 7 days, CTG. The protocol:
(§1) Inhibition of 3D cell proliferation by the compounds was investigated on KRAS G12C mutant human non-small cell lung cancer cells NCI-H358 (ATCC or Stem Cell Bank, Chinese Academy of Sciences), KRAS G12D mutant human metastatic pancreatic adenocarcinoma cells AsPC-1 (ATCC), KRAS G12V mutant human lung adenocarcinoma cells NCI-H441 (ATCC), and KRAS G13D mutant human colorectal adenocarcinoma epithelial cells DLD-1 (ATCC). The specific procedures were as follows:
(§2) 200 nL of compound solution diluted in a gradient was added to corresponding microwells of a 384-well low-adsorption microwell plate (Corning, 3657) using an Echo sonic pipetting system (Labcyte, Echo 550), so that the final concentration of the test compound in the reaction system was in a range of 20000 nM-0.008 nM. Then 40 μL of cells at a certain density were added to the corresponding microplate. In addition to test wells for the test compounds, both a DMSO control well and a medium control well were set, with the DMSO control well containing DMSO and cells and the medium well containing only medium. After sample loading, the plate cover was applied, and the 384-well low-adsorption microplate was incubated in an incubator at 37° C. with 5% carbon dioxide for 7 days. After 7 days, the microplate was taken out, and 40 μL of CTG reagent (Promega, G9683) was added to each well. The plate was incubated at room temperature for 30 min and read on a microplate reader EnVision using the chemiluminescence program. The inhibition rates of the compounds at each concentration were calculated by the formula for the percentage inhibition of cell proliferation: inhibition rate %=(mean value of DMSO control group−single concentration reading value of compound)/(mean value of DMSO control group−mean value of medium control group)×100, and then nonlinear curve fitting was performed by GraphPad Prism 8 in the logarithmic concentration-inhibition rate to obtain the IC50 values of the compounds.

Assay [2] concerns KRAS G13D mutant human colorectal adenocarcinoma epithelial cells DLD-1. Put plainly: 3D cell proliferation inhibition assay, DLD-1. In kind it is cell-based. The settings on record: Homo sapiens, DLD-1, 168 h, 7 days, CTG. As to the method:
as §1, §2

The target of a further assay is T1, KRAS-G12C/SOS1 (Homo sapiens, UniProt Q07889).
T1 construct: purchased Cisbio 63ADKOOOCB16PEG
T1 sequence (Q07889 1-1333): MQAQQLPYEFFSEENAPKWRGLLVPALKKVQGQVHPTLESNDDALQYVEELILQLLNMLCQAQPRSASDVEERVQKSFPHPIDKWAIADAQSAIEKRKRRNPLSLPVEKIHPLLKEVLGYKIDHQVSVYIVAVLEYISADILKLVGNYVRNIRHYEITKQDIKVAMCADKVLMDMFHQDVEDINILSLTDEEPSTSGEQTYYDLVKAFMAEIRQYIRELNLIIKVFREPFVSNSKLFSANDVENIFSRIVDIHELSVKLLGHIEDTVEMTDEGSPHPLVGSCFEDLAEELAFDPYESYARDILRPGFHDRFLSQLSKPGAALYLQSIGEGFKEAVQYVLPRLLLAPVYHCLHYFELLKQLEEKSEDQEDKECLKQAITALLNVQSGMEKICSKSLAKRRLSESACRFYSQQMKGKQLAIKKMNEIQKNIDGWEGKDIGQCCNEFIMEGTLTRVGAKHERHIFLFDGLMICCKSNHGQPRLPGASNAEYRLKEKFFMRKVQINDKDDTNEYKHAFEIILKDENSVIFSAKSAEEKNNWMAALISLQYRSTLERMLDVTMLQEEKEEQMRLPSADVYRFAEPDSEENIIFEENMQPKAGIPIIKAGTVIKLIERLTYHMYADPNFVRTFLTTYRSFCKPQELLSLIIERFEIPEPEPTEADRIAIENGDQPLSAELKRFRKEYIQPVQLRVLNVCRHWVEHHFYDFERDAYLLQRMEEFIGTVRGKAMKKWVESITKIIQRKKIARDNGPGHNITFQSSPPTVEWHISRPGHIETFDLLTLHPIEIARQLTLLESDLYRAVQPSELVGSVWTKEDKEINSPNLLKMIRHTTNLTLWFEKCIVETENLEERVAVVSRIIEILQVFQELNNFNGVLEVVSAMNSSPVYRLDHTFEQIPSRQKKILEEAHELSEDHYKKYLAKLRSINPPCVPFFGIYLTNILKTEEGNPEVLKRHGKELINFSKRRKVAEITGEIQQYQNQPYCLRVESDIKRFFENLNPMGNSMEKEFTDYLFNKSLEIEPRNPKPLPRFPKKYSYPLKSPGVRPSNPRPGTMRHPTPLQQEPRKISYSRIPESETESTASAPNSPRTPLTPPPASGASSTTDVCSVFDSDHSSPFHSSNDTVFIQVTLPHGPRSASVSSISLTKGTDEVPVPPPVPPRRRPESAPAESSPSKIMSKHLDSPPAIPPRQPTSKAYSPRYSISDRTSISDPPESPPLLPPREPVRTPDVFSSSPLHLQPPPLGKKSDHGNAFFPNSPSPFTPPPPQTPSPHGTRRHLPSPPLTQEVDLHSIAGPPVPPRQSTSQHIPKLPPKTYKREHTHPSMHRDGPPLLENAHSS
Put plainly: KRAS-G12C/SOS1 binding assay (HTRF). The settings on record: inhibition of KRAS-G12C/SOS1 binding. In outline:
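HTRF competition assay with Tag1-SOS1 and Tag2-KRAS-G12C (10 μM GTP). Compounds at 10000 nM-0.04 nM final (0.5% DMSO), incubated 15 min at 25° C, then anti-tag Tb3+/XL665 antibodies added for 3 h on ice. The 665/620 nm ratio was compared with control and IC50 derived by nonlinear fit.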
For orientation: In TR-FRET formats the signal depends on donor and acceptor labels being close together.

The structures appear in SMILES notation. pIC50: −log10 of the molar value. Some results are limits rather than exact numbers.

What is called pIC50 is the negative decadic logarithm of the IC50, by convention in mol/L. Low values mean a high IC50, high ones a low IC50. For the compound `COc1cc2nc(C)nc(N[C@H](C)c3cc(N)cc(C(F)(F)F)c3)c2cc1[C@H]1CC[C@H](C(=O)N2CCN(CCC3CCC4(CC3)CCN(C(=O)c3ccc(Cl)c(N5CCC(=O)NC5=O)c3)CC4)CC2)CC1` [Example 1, 1-(5-(9-(2-(4-((1R,4R)-4-(4-(((R)-1-(3-amino-5-(trifluoromethyl)phenyl)ethyl)amino)-7-methoxy-2-methylquinazolin-6-yl)cyclohexane-1-carbonyl)piperazin-1-yl)ethyl)-3-azaspiro[5.5]undecane-3-carbonyl)-2-chlorophenyl)dihydropyrimidine-2,4(1H,3H)-dione], the negative logarithm of the IC50 (pIC50) in assay [1] was 7.30 to 7.52; in assay [2], 7.30 to 7.52; on KRAS-G12C/SOS1 it was 7.52 to 7.82.
Turning to `COc1cc2nc(C)nc(N[C@H](C)c3cc(N)cc(C(F)(F)F)c3)c2cc1[C@H]1CC[C@H](C(=O)N2CCN(CC3CCC4(CC3)CCN(C(=O)c3ccc(Cl)c(N5CCC(=O)NC5=O)c3)CC4)CC2)CC1` [Example 2, 1-(5-(9-((4-((1R,4R)-4-(4-(((R)-1-(3-amino-5-(trifluoromethyl)phenyl)ethyl)amino)-7-methoxy-2-methylquinazolin-6-yl)cyclohexane-1-carbonyl)piperazin-1-yl)methyl)-3-azaspiro[5.5]undecane-3-carbonyl)-2-chlorophenyl)dihydropyrimidine-2,4(1H,3H)-dione], the pIC50 in assay [1] was 6.00 to 7.00; in assay [2], 7.52 to 7.82; on KRAS-G12C/SOS1, at least 7.82.
For `COc1cc2nc(C)nc(N[C@H](C)c3cccc4c3CCS4(=O)=O)c2cc1[C@H]1CC[C@H](C(=O)N2CCN(CC3CCC4(CC3)CCN(C(=O)c3ccc(Cl)c(N5CCC(=O)NC5=O)c3)CC4)CC2)CC1` [Example 10, 1-(2-chloro-5-(9-((4-((1R,4R)-4-(4-(((R)-1-(1,1-dioxo-2,3-dihydrobenzo[b]thiophen-4-yl)ethyl)amino)-7-methoxy-2-methylquinazolin-6-yl)cyclohexane-1-carbonyl)piperazin-1-yl)methyl)-3-azaspiro[5.5]undecane-3-carbonyl)phenyl)dihydropyrimidine-2,4(1H,3H)-dione], the pIC50 is at least 7.82 in assay [1] and 7.52 to 7.82 in assay [2].
Turning to `COc1cc2nc(C)nc(N[C@H](C)c3cc(N)cc(C(F)(F)F)c3)c2cc1[C@H]1CC[C@H](C(=O)N2CCC(CCOCC3CCN(C(=O)c4ccc(Cl)c(N5CCC(=O)NC5=O)c4)CC3)CC2)CC1` [Example 19, 1-(5-(4-((2-(1-((1R,4R)-4-(4-(((R)-1-(3-amino-5-(trifluoromethyl)phenyl)ethyl)amino)-7-methoxy-2-methylquinazolin-6-yl)cyclohexane-1-carbonyl)piperidin-4-yl)ethoxy)methyl)piperidine-1-carbonyl)-2-chlorophenyl)dihydropyrimidine-2,4(1H,3H)-dione], the pIC50 in assay [1] was 7.00 to 7.30; in assay [2] it was 6.00 to 7.00.
For `COc1cc2nc(C)nc(N[C@H](C)c3cc(N)cc(C(F)(F)F)c3)c2cc1[C@H]1CC[C@H](C(=O)N2CCN(CCOCC3CCN(C(=O)c4ccc(Cl)c(N5CCC(=O)NC5=O)c4)CC3)CC2)CC1` [Example 33, 1-(5-(4-((2-(4-((1R,4R)-4-(4-(((R)-1-(3-amino-5-(trifluoromethyl)phenyl)ethyl)amino)-7-methoxy-2-methylquinazolin-6-yl)cyclohexane-1-carbonyl)piperazin-1-yl)ethoxy)methyl)piperidine-1-carbonyl)-2-chlorophenyl)dihydropyrimidine-2,4(1H,3H)-dione], in that order: 6.00 to 7.00 and 7.00 to 7.30.
In the case of `CNCc1ccccc1-c1csc([C@@H](C)Nc2nc(C)nc3cc(OC)c([C@H]4CC[C@H](C(=O)N5CCN(CC6CCC7(CC6)CCN(C(=O)c6ccc(OC)c(N8CCC(=O)NC8=O)c6)CC7)CC5)CC4)cc23)c1` [Example 73, 1-(2-methoxy-5-(9-((4-((1R,4R)-4-(7-methoxy-2-methyl-4-(((R)-1-(4-(2-((methylamino)methyl)phenyl)thien-2-yl)ethyl)amino)quinazolin-6-yl)cyclohexane-1-carbonyl)piperazin-1-yl)methyl)-3-azaspiro[5.5]undecane-3-carbonyl)phenyl)dihydropyrimidine-2,4(1H,3H)-dione], the results for the pIC50 in assay [1] and in assay [2] were 6.00 to 7.00 and 7.00 to 7.30, respectively.
